These are literature values, as cited in US20050147578A1, “Topical cosmetic composition having a natural plant active ingredient and method of using same” (Avon Products, Inc., priority 2001, published 2005).

The test system of the series is Heat shock 70 protein.

The structures appear in SMILES notation.

For the compound `O=[As]O` [Sodium arsenite, sodium arsenite], the “production of heat shock protein (known effect of positive control)” value is reported as “stimulate the production of heat shock protein”.
